# From patent US20250213526A1, “TRIPLE UPTAKE INHIBITOR FOR THE TREATMENT OF ATYPICAL DEPRESSION” (priority 2022, published 2025)
# “Also recorded” adds a separate entry of the source.
# Key:
# Format in all cases: in vivo, rat
# [1] = system: adult male Sprague Dawley rats; test: Progressive ratio (PROG)/Chow feeding choice task; conditions: for standard chow intake vs VEH / lever pressing vs VEH: 30-minute session; for chow intake vs VEH, high responders / lever pressing vs VEH, high responders: high responder group (n=15); for lever presses, low responders (chow-intake analysis, FIG. 15) / lever pressing vs VEH, low responders: low responder group (n=16); for lever presses, low responders (chow-intake analysis, FIG. 15): Dunnett's test
# Method: The PROG/Chow feeding choice procedure was used as a test designed to evaluate the effort a rat is willing to make to eat a palatable food by pressing a lever instead of eating freely available standard food.
# Methods. Thirty-one (n=31) adult male Sprague Dawley rats were used in this study. The animals were restricted to 85% of their free-feeding weight, with modest growth allowed throughout the study period. Animals were assessed using operant conditioning chambers. Animals were first introduced to the high carbohydrate pellets (“palatable food”) and trained to lever press using a continuous reinforcement schedule with a fixed ration of one (FR1=one active lever press trigger the delivery of the palatable food) for one week. After this, the rats were trained on the progressive ratio (progressively more lever pressures were needed to trigger the delivery of the palatable food) schedule alone for nine weeks at which point chow (“standard food”) was introduced (=PROG/Chow feeding choice procedure), and animals trained for another 5 weeks to acquire a steady baseline. Each session lasted 30 minutes and rats ran in the operant chambers once a day, five days a week (Monday-Friday). Vehicle (VEH), or Compound 1 doses of 5.0, 10.0, and 20.0 mg/kg were administered via oral gavage once a week (Thursday or Friday) after the training period. Treatment conditions were selected randomly. Lever presses and chow consumption (including spillage) were recorded after each operant session.
# Statistical analyses. Repeated measures analysis of variance test (ANOVA) and planned comparisons were used to assess the data overall. Factorial ANOVA was used to assess group x treatment interaction. If significant interactions were found, planned comparisons (using the overall error term) were used to assess the groups individually. Dunnett's tests were also used to analyze differences between drug treatments and VEH. A p value of <0.05 was considered statistically significant for all analyses.
# Male Long Evans Rats = test: 5-choice serial reaction time task (5-CSRTT)
# Text: The 5-choice serial reaction time task (5-CSRTT) is widely used to measure attentional performance and response control (motor impulsivity) in rodents. A strength of the test is its adaptability to task modification. Variations to stimulus duration and frequency of stimulus presentation, amongst others, have become commonly used to challenge performance in the context of attention and response control. The primary objective of these studies was to examine the effect of Compound 1 on attentional performance and on aspects of response control, defined as premature responses (PREM) and perseverative responses (PSV), measures of impulsive action, and compulsive action respectively. Two experimental manipulations were undertaken to differentially challenge performance. Specifically, (1) test Compound 1 (1, 3, 10 mg/kg) under standard test conditions of 0.75 s SD, 5 s ITI, 100 trials, and (2) test Compound 1 (1, 3 mg/kg) against a long ITI challenge. The long ITI challenge is designed to elevate PREM and PSV responses and so provide a means to examine the effect of both test articles on measures of impulsive and compulsive action.
# • Dosage form: 0.3% Tween80 in 0.9% Saline • Pretreatment time: 180 minutes
# • Dosage form: Compound 1 was suspended in 0.3% Tween80 in 0.9% Saline and sonicated. Drug was administered at a volume of 5 mL/kg, oral (PO) route. • Pretreatment time: 180 minutes • Doses tested: Phase 1: 1, 3, 10 mg/kg; Phase 2: 1, 3 mg/kg
# Housing and Management of Test System: Following a one-week period of familiarization to the test facility, animals were placed on a restricted diet regimen, in which they were fed approximately 20 g of standard laboratory chow once per day (corresponding to ˜80% of normal food consumption) following the completion of study procedures (between 16:00 h and 18:00 h). Overall food intakes were therefore based on food earned during 5-choice training/testing and chow at the end of each study day. On days where no training/testing occurred, the daily allotted lab chow was increased to approximately 24 g per animal. Water was available ad-libitum except during 5-choice training/testing sessions. Animals were maintained on a 12 h/12 h light/dark cycle with all testing conducted during the animals' light cycle.
# 5-choice serial reaction time task: 5-choice operant chambers were housed in sound-insulated and ventilated enclosures. Chambers consisted of an aluminum enclosure (25×30 cm), containing a reward magazine attached to a food pellet dispenser and house light on one wall, and on the opposite wall an array of 5 square niches (2.5×2.5×2.5 cm) arranged on a curved panel and raised 2.5 cm from the grid floor. An LED was positioned at the rear of each niche. Each niche, and the reward magazine, also contained a photocell to detect head entry. Test chambers were controlled by Med PC software.
# The 5-CSRTT schedule began with the illumination of the house light and delivery of a food pellet. A nose-poke into the magazine tray initiated the first trial which consisted of an inter-trial interval (ITI, 5 s) followed by the random illumination of one of the 5 lights for a fixed interval (stimulus duration, SD). If a nose-poke was registered in the illuminated niche before the end of either the SD, or a fixed interval after this period (limited hold, LH) a further pellet was dispensed and a Correct Trial registered. […] PSV responses were not punished by a TO.
# Each session ran for either 100 trials or 60 min, depending on which session endpoint was achieved first. Animals were trained via a series of steps to final test conditions of 0.75 s SD, 5 s ITI, 5 s limited hold. Target performance was stable performance around a threshold of 80% correct ([correct/(correct+incorrect)]*100) and <20% omissions for at least a two week period. At this point drug testing began according to a repeated measures design with animals receiving treatment over repeated test sessions. […]
# [2] = system: adult male Sprague-Dawley rats; test: Sleep/wake parameters, repeated measures; conditions: first 6 hours post-dosing, n=8
# Method: Using a counter-balanced, repeated measures design, three doses of Compound 1 (1-10 mg/kg, p.o.) were tested for their effects on sleep/wake parameters in adult male Sprague-Dawley rats (n=8). The results were compared with the effects on caffeine (10 mg/kg).
# Methods. Eight (n=8) adult male Sprague Dawley rats were used in this study. Each rat received Compound 1 at 3 doses (1, 3 and 10 mg/kg), vehicle (purified H2O-negative control) and caffeine (10 mg/kg—positive control). […] Sleep parameters (non-rapid eye movement sleep, NR; rapid eye movement sleep, REM) were recorded and the first 6 hours post-dosing records were analyzed.
# [3] = system: adult male Sprague Dawley rats; test: Fixed ratio 1 (FR1) schedule probe
# Text: A fixed ratio 1 (FR1) schedule was used, and this task is the most food dense and appetite dependent operant schedule, with high sensitivity to appetite-related manipulations such as pre-feeding and appetite suppressant drugs.
# Methods. The same adult male Sprague Dawley rats (n=31) as in Example 5 were used in this study. Animals trained once daily on the PROG/Chow feeding choice procedure from Monday through Thursday. On Friday, the testing day, the animals were switched from the PROG/Chow feeding choice procedure to FR1 with no prior training. Each operant session lasted 30 minutes and lever presses were recorded at the end of the run. Drug treatment and the FR1 probe occurred on the Friday after two weeks of washout period from Example 5. A dose of 20.0 mg/kg of Compound 1 or vehicle was administered via oral gavage on the testing day. Only the highest dose was tested in this study because, in Example 5, it produced the most robust decrease in lever pressing and chow intake compared to VEH. Treatment conditions were assigned randomly. Treatment group difference was assessed by unpaired t-test. A p value of <0.05 was considered statistically significant.
# male Sprague-Dawley rats = test: Binge-like eating of chocolate; conditions: for chocolate intake vs VEH: 4 h pre-treatment, 1-hr session
# Text: Methods. A new group of male Sprague-Dawley rats (n=8; initial weight 300-325 g) was used for the binge-like eating experiment. They were pair-housed under the same conditions described above, however, they were not food restricted, and in the home cage were allowed ad libitum access to food (laboratory chow) and water. Acquisition of the binge-like eating took place over the course of 12 exposure sessions. A 3-day, 1-hr habituation exposure to an empty feeding cage with a ceramic dish took place before chocolate exposure. With chocolate exposure, rats received chocolate (0.3 g fat, 0.57 g carbohydrate, and 0.073 g protein with a total of 5.34 kcal/g) on days 1, 2, 4, 6, 7, 9, 12, 14, 15, 18, 23, and 28. On exposure days, rats were placed in an empty feeding cage with a ceramic dish containing ground chocolate for 1 hr. Weight of chocolate was taken before and after each session to determine intake.
# Drug Administration. Upon completion of the 12 acquisition sessions of binge-like eating rats continued to be exposed to chocolate sessions twice a week for 1-hr in empty feeding cages with a ceramic dish containing chocolate. One session was for maintenance of the binge-like behavior, and then the second was for drug treatment. These sessions took place randomly throughout the week with the maintenance session always occurring prior to the drug treatment session. Compound 1 was dissolved in 0.3% Tween 80 in dH2O. Vehicle (VEH), or doses of 5.0, 10.0, and 20.0 mg/kg were administered via oral gavage once a week for testing. A pre-treatment lead time of four hours was used. A within-subjects design was used in this study, with each rat receiving one treatment per week for a total of four weeks. Treatment conditions were selected randomly.
# Data Analysis. Repeated measures ANOVA and planned comparisons were used to assess the effect of Compound 1 on binge-like eating of chocolate.
# [4] = 10.0 mg/kg oral gavage, n=31, p<0.001
# [5] = 20.0 mg/kg oral gavage, n=31, p<0.001
# [6] = standard conditions 0.75 s SD, 5 s ITI, 100 trials, 1, 3, 10 mg/kg PO, P<0.01
# [7] = standard conditions, 1, 3, 10 mg/kg PO
structure (smiles),measurement,setting,value
"CCC[C@]1(C(=O)c2ccc(Cl)c(Cl)c2)CCNC1 [Compound 1, (3,4-dichloro-phenyl)-((S)-3-propyl-pyrrolidin-3-yl)-methanone]",standard chow intake vs VEH,"[1]; 5.0 mg/kg oral gavage, n=31, p<0.001",significant decreases
same,lever pressing vs VEH,"[1]; 5.0 mg/kg oral gavage, n=31, p=n.s.",No significant difference
same,lever pressing vs VEH,[1]; [4],significant decreases in lever pressing
same,standard chow intake vs VEH,[1]; [4],significant decreases
same,lever pressing vs VEH,[1]; [5],significant decreases in lever pressing
same,standard chow intake vs VEH,[1]; [5],significant decreases
same,overall conclusion on appetite,[1]; 5.0-20.0 mg/kg oral gavage,appetite suppressant effects
same,"chow intake vs VEH, high responders","[1]; 5.0 mg/kg, p<0.010",significant decreases in chow intake
same,"lever pressing vs VEH, high responders","[1]; 5.0 mg/kg, p=n.s.",no significant difference
same,"chow intake vs VEH, high responders","[1]; 10.0 mg/kg, p<0.001",significant decreases in chow intake
same,"lever pressing vs VEH, high responders","[1]; 10.0 mg/kg, p<0.001",significant decreases in lever pressing
same,"chow intake vs VEH, high responders","[1]; 20.0 mg/kg, p<0.001",significant decreases in chow intake
same,"lever pressing vs VEH, high responders","[1]; 20.0 mg/kg, p<0.001",significant decreases in lever pressing
same,"lever presses, low responders (chow-intake analysis, FIG. 15)","[1]; 5.0 mg/kg, p<0.001",significant decreases in lever presses
same,"lever pressing vs VEH, low responders","[1]; 5.0 mg/kg, p=n.s.",no significant differences
same,"lever presses, low responders (chow-intake analysis, FIG. 15)","[1]; 10.0 mg/kg, p<0.001",significant decreases in lever presses
same,"lever pressing vs VEH, low responders","[1]; 10.0 mg/kg, p=n.s.",no significant differences
same,"lever presses, low responders (chow-intake analysis, FIG. 15)","[1]; 20.0 mg/kg, p<0.001",significant decreases in lever presses
same,"lever pressing vs VEH, low responders","[1]; 20.0 mg/kg, p=n.s.",no significant differences
same,PREM responses in low/high impulsive subgroups,"Male Long Evans Rats; 10 s ITI schedule, 1 and 3 mg/kg PO, LI and HI subgroups, P<0.01",main effects of treatment and subgroup x treatment interactions
same,PSV responses in low/high impulsive subgroups,"Male Long Evans Rats; 10 s ITI schedule, 1 and 3 mg/kg PO, LI and HI subgroups, treatment P=0.02, interaction P<0.01",main effects of treatment and subgroup x treatment interactions
same,"any task measure (accuracy % correct, % hit, PREM/PSV responses)","Male Long Evans Rats; 10 s ITI, 0.3 s SD schedule, 1 and 3 mg/kg PO, all N=21 rats, F2,40≤2.5, NS",no main effects of treatment on any measure
same,impulsive behaviors in rats,Male Long Evans Rats; FIGS. 10A and 10B,reduces impulsive behaviors
same,perseverative (PSV) responses relative to vehicle,Male Long Evans Rats; [6],dose-related decrease; also recorded: dose-dependently reduced
same,premature (PREM) responses relative to vehicle,Male Long Evans Rats; [6],dose-related decrease; also recorded: dose-dependently reduced
same,trial number,"Male Long Evans Rats; standard conditions, 10 mg/kg PO",decreased
same,accuracy,Male Long Evans Rats; [7],no main effects of treatment; also recorded: no adverse effects
same,speed of responding,Male Long Evans Rats; [7],no adverse effects
same,REM sleep,[2]; 3 mg/kg p.o.,"reduced REM sleep, but to a lesser extent"
same,wake,[2]; 3 mg/kg p.o.,significantly increased wake
same,REM sleep,[2]; 10 mg/kg p.o.,complete suppression of REM sleep
same,wake,[2]; 10 mg/kg p.o.,wake-promoting effects
same,rats that pressed the lever but refrained from eating some of the pellets,[3]; 20.0 mg/kg oral gavage,6 of the 16
same,lever pressing vs VEH in FR1 probe,"[3]; 20.0 mg/kg oral gavage, 30-minute session, unpaired t-test t=9.74, p<0.001",significant decrease in lever pressing
same,uneaten pellets left in the food dishes of these animals,"[3]; 20.0 mg/kg, after the 30-minute operant session",5-10 pellets
same,chocolate intake vs VEH,"male Sprague-Dawley rats; 5.0 mg/kg oral gavage, n=8, n.s.",did not significantly suppress chocolate intake
same,chocolate intake vs VEH,"male Sprague-Dawley rats; 10.0 mg/kg oral gavage, n=8, p<0.001",significant reductions in chocolate intake
same,chocolate intake vs VEH,"male Sprague-Dawley rats; 20.0 mg/kg oral gavage, n=8, p<0.001",significant reductions in chocolate intake
same,binge eating in animal model (FIGS. 8 and 9),"male Sprague-Dawley rats; rat, in vivo",effective in controlling binge eating
